According to patent publication US11471458B2, “Diacylglycerol acyl transferase 2 inhibitor” (Pfizer Inc., priority 2019, dated 2022):
In brackets after ≈: the same amount, converted by molar mass. Structures can show the parent of a compound that is named as a salt.

Key:
[1] = Intrinsic clearance in human liver microsomes; format: in vitro ADME; conditions: human, pooled human liver microsomes (50 donors), pH 7.4, human liver microsome assay; 1 μM test compound, 0.806 mg/mL protein, NADPH, pH 7.4, 37° C.; mean +/− STD Dev; read-out: CLint (μL/min/mg) (+/− STD Dev)
Method: The incubations were conducted at 37° C. […] (Sorvall RC 3C Plus, Thermo Scientific, Waltham, Mass.).

[2] = High throughput determination of intrinsic clearance in human hepatocytes; format: in vitro ADME; conditions: human, pooled cryopreserved human hepatocytes (10 donors), high throughput human hepatocyte assay; 0.5 million cells/mL, 1 μM test compound, 37° C.; mean +/− Std Dev; read-out: CLint (μL/min/10^6 cells) (+/− Std Dev)
Method: The incubation was carried out at 37° C. […] The samples were centrifuged (Eppendorf, Hauppauge, N.Y.) at 3000 rpm for 5 min at 4° C.

[3] = Determination of pKa (capillary electrophoresis, Analiza, Inc.); format: physicochemical; conditions: mean, read-out: Basic pKa (most basic pKa)
[4] = Intrinsic clearance in human hepatocytes (relay method); format: in vitro ADME; conditions: human, cryopreserved human hepatocytes (suspension, relay method), 20 h total incubation, mean +/− standard deviation, read-out: CLint (+/− Std Dev), relay hepatocyte assay
Method: For intrinsic clearance (CLint) measurement, hepatocyte relay method was used (Di, L., et al. 2012, Drug Metab. Dispos., 40, 1860-1865 and Di, L., et al. 2013, Drug Metab. Dispos., 41, 2018-2023). Cryopreserved human hepatocytes (Lot DCM from BioreclamationlVT) were used. Upon thawing, the hepatocytes were resuspended in Williams' medium E (custom formula number 91-5233EA; Gibco, Grand Island, N.Y.) supplemented with Hepes and Na2CO3. […] The plates were incubated at 37° C. with 95% air/5% CO2, 75% relative humidity for 4 h at 150 rpm in a humidified incubator. At time 0 and 4 h, 25 μL of hepatocyte suspension was removed from the incubation and added to 50 μL of ice-cold acetonitrile (containing metoprolol, indomethacin, and terfenadine as internal standards) to quench the reaction. The samples were centrifuged (Eppendorf, Hauppauge, N.Y.) at 3000 rpm (1439×g) for 10 min at room temperature, and 50 μL of supernatant was transferred to a clean plate, dried completely, and reconstituted before liquid chromatography/tandem mass spectrometry (LC-MS/MS) analysis. The remaining hepatocyte suspensions in the incubation plate were centrifuged (3000 rpm, 1439×g, 10 min, room temperature). The supernatant of 300 μL was transferred to a clean 24-well plate and stored at −80° C. until the next relay experiment. For the second relay experiment, the supernatant plates were warmed first to room temperature for 30 minutes, then to 37° C. for 30 min, and hepatocytes were added to the samples to give a final cell density of 0.5 million cells/mL. The plates were incubated at 37° C. for 4 h, sampled, and processed as described above. Five relays were performed to give a total incubation time of 20 h, with sampling points at (0, 4, 8, 12, 16 and 20 h). The concentrations of test compound determined at each time point by the LC-MS/MS analysis were used to calculate the intrinsic clearance.

[5] = Thermodynamic solubility in various biorelevant media; format: physicochemical; conditions: crystalline solid; for solubility at 25 h: 25 °C, thermodynamic from solid
Method: The solubility of active pharmaceutical ingredients is an important characteristic in determining biological performance and ease of formulation during drug development, with high solubility being preferred (Klein, S. 2010, The AAPS Journal, 12, 397-406; Di, L., et al 2012, Drug Disc. Today, 17. 486-495). A test sample of crystalline solid (˜7 mg) was combined in a vial with 1 mL of the relevant buffer solution and the mixture vortexed to combine. If the solid dissolved completely, additional solid was added with vortexing until a saturated solution was obtained. The saturated solution/solid mixture was capped and subjected to temperature cycling as follows: 1 min at 25° C., 8 h at 40° C., 5 h at 15° C. and 12 h at 25° C. The mixture was filtered in a centrifugal filtration device (0.22 μm PVDF filter, MilliporeSigma, Milwaukee, Wis.) at 13,000 rpm and the concentration of the test compound in the filtrate was determined by HPLC/UPLC with reference to a three point standard curve. Phosphate buffered saline (PBS, pH 6.8, 50 mM phosphate buffer, 250 mM NaCl). Simulated gastric fluid (SGN pH 1.2, USP recipe). Fasted state simulated intestinal fluid (FaSSIF, 3 mM sodium taurocholate, 0.75 mM phospholipid from soybean lecithin, 50 mM phosphate buffer, ionic strength adjusted to 250 mM with NaCl, pH 6.8) and fed state simulated intestinal fluid (FeSSIF, 15 mM sodium taurocholate, 3.75 mM phospholipid from soybean lecithin, 144 mM acetic acid, 50 mM phosphate buffer, ionic strength adjusted to 250 mM with NaCl, pH 6.8).

human DGAT2 (hDGAT2) = human DGAT2 (hDGAT2) (Homo sapiens (Human), UniProt Q96PD7); experiment: In vitro DGAT2 assay, determination of IC50 values for DGAT2 inhibitors; format: biochemical; conditions: hDGAT2 membrane fraction; geometric mean
Method: Recombinant baculovirus for the FLAG-tagged hDGAT2 was generated in SF9 insect cells using Bac-to-Bac baculovirus expression system (Invitrogen) according to the manufacturer's protocol. For the expression of hDGAT2, SF9 cells (20 L) grown in Sf900II media were infected with hDGAT2 baculovirus at a multiplicity of infection of 1 in a Wave Bioreactor System 20/50P wave bag (GE Healthcare). After 40 hours of infection, the cells were then harvested by centrifugation at 5,000×g. The cell pellets were washed by resuspending in phosphate buffered saline (PBS) and collected by centrifugation at 5,000×g. The cell paste was flash frozen in liquid N2 and stored at −80° C. until needed. All operations below were at 4° C. unless otherwise noted. The cells were resuspended in lysis buffer (50 mM Tris-HCl, pH 8.0, 250 mM sucrose) including 1 mM ethylenediaminetetraacetic acid (EDTA) and the complete protease inhibitor cocktail (Roche Diagnostics) at a ratio of 3 mL buffer per 1 g cell paste. The cells were lysed by dounce homogenizer. The cell debris was removed by centrifugation at 1,000×g for 20 min, and the supernatant was centrifuged at 100,000×g for 1 hour. The resulting pellet was rinsed three times by filling ultracentrifuge tubes to the top with ice cold PBS before decanting. The washed pellet was resuspended with gentle stirring for 1 hour in lysis buffer containing 8 mM 3-[(3-cholamidopropyl)dimethylammonio]-1-propanesulfonate (CHAPS) at a ratio of 1 mL buffer per 1 g of original cell paste and centrifuged again at 100,000×g for 1 hour. The resulting supernatant was aliquotted, flash frozen in liquid N2, and stored at −80° C. until use.
To 1 μL of compounds dissolved in 100% DMSO and spotted at the bottom of each well, 5 μL of 0.04% bovine serum albumin (BSA) (fatty acid free, Sigma Aldrich) was added and the mixture was incubated at room temperature for 15 minutes. hDGAT2 membrane fractions were diluted in 100 mM Hepes-NaOH, pH 7.4, 20 mM MgCl2 containing 200 nM methyl arachidonyl fluorophosphonate (Cayman Chemical; dried from ethyl acetate stock solution under argon gas and dissolved in DMSO as 5 mM stock). 10 μL of this enzyme working solution was added to the plates and incubation continued for 2 hours at room temperature. […] Plates were centrifuged at 2,000×g for 1 minute in an Allegra 6R Centrifuge (Beckman Coulter) and then were sealed again with fresh covers before reading in a 1450 Microbeta Wallac Trilux Scintillation Counter (Perkin Elmer). DGAT2 activity was measured by quantifying the generated product [^14C]tridecanoylglycerol in the upper organic phase. […]

Chain of human DGAT2 (hDGAT2) (Q96PD7 whole entry): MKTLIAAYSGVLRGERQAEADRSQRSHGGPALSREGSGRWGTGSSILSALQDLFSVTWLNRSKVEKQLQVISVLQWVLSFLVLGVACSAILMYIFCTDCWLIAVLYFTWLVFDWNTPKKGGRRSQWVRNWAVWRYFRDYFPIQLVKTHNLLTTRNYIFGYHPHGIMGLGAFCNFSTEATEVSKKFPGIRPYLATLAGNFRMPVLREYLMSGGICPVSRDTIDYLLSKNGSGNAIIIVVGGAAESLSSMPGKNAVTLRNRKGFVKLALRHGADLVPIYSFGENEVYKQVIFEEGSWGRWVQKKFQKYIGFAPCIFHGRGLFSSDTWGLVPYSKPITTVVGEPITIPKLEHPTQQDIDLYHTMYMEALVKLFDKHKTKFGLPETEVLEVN

microsomal CLint at 1 μM [1] [µL/min/mg]	hepatocyte CLint at 1 μM [2] [µL/min/1e6 cells]	pKa [3]	hepatocyte CLint at 1 μM [4] [µL/min/1e6 cells]	IC50 (human DGAT2 (hDGAT2)) [nM]	SMILES	other results
< 14	12	–	–	–	CCOc1cccnc1Oc1cncc(-c2ncc(C(=O)N[C@H]3CCC(C(F)(F)F)NC3)cn2)c1 (mixture of isomers) [Example 8, rac-2-{5-[(3-ethoxypyridin-2-yl)oxy]pyridin-3-yl}-N-[(3R,6S)-6-(trifluoromethyl)piperidin-3-yl]pyrimidine-5-carboxamide or rac-2-{5-[(3-ethoxypyridin-2-yl)oxy]pyridin-3-yl}-N-[(3R,6R)-6-(trifluoromethyl)piperidin-3-yl]pyrimidine-5-carboxamide]	–
13	< 3.8	2.3	3.2	–	CCOc1cccnc1Oc1cncc(-c2ncc(C(=O)NC3(CO)CCOC3)cn2)c1 (single isomer, unassigned) [WO2018033832 Ex. 6a]	–
< 7	< 2.7	7.7	–	–	CCOc1cc(F)cnc1Oc1cncc(-c2ncc(C(=O)N[C@@H]3CNCC[C@@H]3F)cn2)c1 [Example 1, 2-{5-[(3-Ethoxy-5-fluoropyridin-2-yl)oxy]pyridin-3-yl}-N-[(3R,4S)-4-fluoropiperidin-3-yl]pyrimidine-5-carboxamide, bis(trifluoroacetate) Salt]	–
–	–	–	–	–	CCOc1cccnc1Oc1cncc(-c2ncc(C(=O)N[C@H]3CCOC3)cn2)c1 [WO2018033832 Ex. 1, Form 1]	Solubility ([5]; SGN pH 1.2 (simulated gastric fluid)): 78 µg/mL (≈ 191 µM); solubility at 25 h ([5]; fasted state simulated intestinal fluid (FaSSIF), pH 6.8, fassif, FaSSIF pH 6.8): 69 µg/mL (≈ 169 µM); solubility at 25 h ([5]; phosphate buffered saline, pH 6.8, aqueous buffer, PBS, pH 6.8): 43 µg/mL (≈ 106 µM)
–	–	–	–	–	CCOc1cccnc1Oc1cncc(-c2ncc(C(=O)N[C@H]3CCOC3)cn2)c1 [WO2018033832 Ex. 1, Form 2]	Solubility ([5]; FaSSIF pH 6.8): 93 µg/mL (≈ 228 µM); Solubility ([5]; PBS, pH 6.8): 60 µg/mL (≈ 147 µM)
11	< 3.8	2.4	3.9	–	CCOc1cccnc1Oc1cncc(-c2ncc(C(=O)N[C@H]3CCOC3)cn2)c1 [WO2018033832 Ex. 1]	–
17	4.7	2.5	4.9	–	CCOc1cccnc1Oc1cncc(-c2ncc(C(=O)N[C@@H]3CCOC3)cn2)c1 [WO2018033832 Ex. 2]	–
30	9.3	–	–	13	CCOc1cccnc1Oc1cncc(-c2ncc(C(=O)NC3(C)CCS(=O)(=O)C3)cn2)c1 (stereo not shown) [WO2018033832 Ex. 3.1]	–
< 8	5.1	–	–	200	CCOc1cccnc1Oc1cncc(-c2ncc(C(=O)NC3CCS(=O)(=O)C3)cn2)c1 (stereo not shown) [WO2018033832 Ex. 3.3]	–
< 9.6	9.3	–	–	3.3	CCOc1cc(F)cnc1Oc1cncc(-c2ncc(C(=O)N[C@H]3CCOC3)cn2)c1 [WO2018033832 Ex. 8]	–
